Source: paper PMC5428509, “Irreversible inhibition of BTK kinase by a novel highly selective inhibitor CHMFL-BTK-11 suppresses inflammatory response in rheumatoid arthritis model” (Scientific Reports, 2017)

Columns and labels:
Assay in all cases: biochemical
Design in all cases: KinomeScan competition binding panel (DiscoveRx), percent of control at 1 uM
Conditions in all cases: read-out: Percent Control
[1] = target: BMPR1B (Homo sapiens, UniProt O00238)
Method in brief: (§1)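 KinomeScan technology used to profile binding across a panel of 456 kinases and mutants.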

[2] = target: BRAF(V600E) (Homo sapiens, UniProt P15056, V600E)
Method in brief: as §1

[3] = target: T1, CDK4-cyclinD3 (Homo sapiens, UniProt P11802)
T1 construct: cyclinD3
Method in brief: as §1

[4] = target: T2, DRAK1 (Homo sapiens, UniProt Q9UEE5)
T2 construct: gene STK17A
Method in brief: as §1

[5] = target: DYRK1A (Homo sapiens, UniProt Q13627)
Method in brief: as §1

[6] = target: DYRK1B (Homo sapiens, UniProt Q9Y463)
Method in brief: as §1

[7] = target: EGFR(L747-S752del, P753S) (Homo sapiens, UniProt P00533, DEL747-752/P753S)
Method in brief: as §1

[8] = target: EPHB1 (Homo sapiens, UniProt P54762)
Method in brief: as §1

[9] = target: T3, ERK4 (Homo sapiens, UniProt P31152)
T3 construct: gene MAPK4
Method in brief: as §1

[10] = target: FGFR3(G697C) (Homo sapiens, UniProt P22607, G697C)
Method in brief: as §1

[11] = target: FLT3(K663Q) (Homo sapiens, UniProt P36888, K663Q)
Method in brief: as §1

[12] = target: GSK3A (Homo sapiens, UniProt P49840)
Method in brief: as §1

[13] = target: HIPK3 (Homo sapiens, UniProt Q9H422)
Method in brief: as §1

[14] = target: T4, JAK2(JH1domain-catalytic) (Homo sapiens, UniProt O60674)
T4 construct: JH1domain-catalytic
Method in brief: as §1

[15] = target: KIT(D816V) (Homo sapiens, UniProt P10721, D816V)
Method in brief: as §1

[16] = target: MARK1 (Homo sapiens, UniProt Q9P0L2)
Method in brief: as §1

[17] = target: MARK2 (Homo sapiens, UniProt Q7KZI7)
Method in brief: as §1

[18] = target: MYLK2 (Homo sapiens, UniProt Q9H1R3)
Method in brief: as §1

[19] = target: T5, NDR2 (Homo sapiens, UniProt Q9Y2H1)
T5 construct: gene STK38L
Method in brief: as §1

[20] = target: PDGFRA (Homo sapiens, UniProt P16234)
Method in brief: as §1

[21] = target: PIK3CA(C420R) (Homo sapiens, UniProt P42336, C420R)
Method in brief: as §1

[22] = target: T6, PIP5K2B (Homo sapiens, UniProt P78356)
T6 construct: gene PIP4K2B
Method in brief: as §1

[23] = target: PLK3 (Homo sapiens, UniProt Q9H4B4)
Method in brief: as §1

[24] = target: PRKCQ (Homo sapiens, UniProt Q04759)
Method in brief: as §1

HIPK3, sequence (Q9H422 whole entry): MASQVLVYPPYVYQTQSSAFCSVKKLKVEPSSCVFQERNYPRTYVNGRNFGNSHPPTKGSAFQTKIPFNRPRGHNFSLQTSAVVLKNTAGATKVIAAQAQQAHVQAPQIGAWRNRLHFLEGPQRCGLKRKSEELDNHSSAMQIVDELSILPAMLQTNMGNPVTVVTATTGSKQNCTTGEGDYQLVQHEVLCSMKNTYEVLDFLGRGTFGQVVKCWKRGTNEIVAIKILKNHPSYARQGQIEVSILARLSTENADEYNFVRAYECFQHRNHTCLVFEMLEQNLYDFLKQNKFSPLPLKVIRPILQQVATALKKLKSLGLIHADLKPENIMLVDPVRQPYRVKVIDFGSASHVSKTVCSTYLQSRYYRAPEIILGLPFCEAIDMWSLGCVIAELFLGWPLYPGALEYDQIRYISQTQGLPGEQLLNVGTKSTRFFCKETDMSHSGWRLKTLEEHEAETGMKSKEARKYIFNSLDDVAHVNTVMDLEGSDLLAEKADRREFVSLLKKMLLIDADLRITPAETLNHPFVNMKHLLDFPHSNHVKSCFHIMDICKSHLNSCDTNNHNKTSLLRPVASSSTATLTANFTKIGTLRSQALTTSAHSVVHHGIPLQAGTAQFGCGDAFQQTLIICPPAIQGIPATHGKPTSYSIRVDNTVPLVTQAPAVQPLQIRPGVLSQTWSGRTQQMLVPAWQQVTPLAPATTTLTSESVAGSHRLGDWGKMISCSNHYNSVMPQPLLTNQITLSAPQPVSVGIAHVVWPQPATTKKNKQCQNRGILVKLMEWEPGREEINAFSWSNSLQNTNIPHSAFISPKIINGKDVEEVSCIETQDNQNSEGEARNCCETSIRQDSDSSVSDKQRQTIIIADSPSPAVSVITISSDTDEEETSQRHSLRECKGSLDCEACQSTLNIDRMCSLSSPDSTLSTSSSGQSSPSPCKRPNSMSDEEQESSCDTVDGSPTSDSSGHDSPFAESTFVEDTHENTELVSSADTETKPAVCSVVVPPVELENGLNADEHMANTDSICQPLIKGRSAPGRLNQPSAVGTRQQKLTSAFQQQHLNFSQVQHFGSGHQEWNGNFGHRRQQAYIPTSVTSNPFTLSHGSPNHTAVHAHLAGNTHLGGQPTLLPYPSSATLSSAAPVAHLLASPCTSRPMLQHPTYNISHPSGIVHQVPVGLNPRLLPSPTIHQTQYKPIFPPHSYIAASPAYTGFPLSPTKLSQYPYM
EPHB1, sequence (P54762 whole entry): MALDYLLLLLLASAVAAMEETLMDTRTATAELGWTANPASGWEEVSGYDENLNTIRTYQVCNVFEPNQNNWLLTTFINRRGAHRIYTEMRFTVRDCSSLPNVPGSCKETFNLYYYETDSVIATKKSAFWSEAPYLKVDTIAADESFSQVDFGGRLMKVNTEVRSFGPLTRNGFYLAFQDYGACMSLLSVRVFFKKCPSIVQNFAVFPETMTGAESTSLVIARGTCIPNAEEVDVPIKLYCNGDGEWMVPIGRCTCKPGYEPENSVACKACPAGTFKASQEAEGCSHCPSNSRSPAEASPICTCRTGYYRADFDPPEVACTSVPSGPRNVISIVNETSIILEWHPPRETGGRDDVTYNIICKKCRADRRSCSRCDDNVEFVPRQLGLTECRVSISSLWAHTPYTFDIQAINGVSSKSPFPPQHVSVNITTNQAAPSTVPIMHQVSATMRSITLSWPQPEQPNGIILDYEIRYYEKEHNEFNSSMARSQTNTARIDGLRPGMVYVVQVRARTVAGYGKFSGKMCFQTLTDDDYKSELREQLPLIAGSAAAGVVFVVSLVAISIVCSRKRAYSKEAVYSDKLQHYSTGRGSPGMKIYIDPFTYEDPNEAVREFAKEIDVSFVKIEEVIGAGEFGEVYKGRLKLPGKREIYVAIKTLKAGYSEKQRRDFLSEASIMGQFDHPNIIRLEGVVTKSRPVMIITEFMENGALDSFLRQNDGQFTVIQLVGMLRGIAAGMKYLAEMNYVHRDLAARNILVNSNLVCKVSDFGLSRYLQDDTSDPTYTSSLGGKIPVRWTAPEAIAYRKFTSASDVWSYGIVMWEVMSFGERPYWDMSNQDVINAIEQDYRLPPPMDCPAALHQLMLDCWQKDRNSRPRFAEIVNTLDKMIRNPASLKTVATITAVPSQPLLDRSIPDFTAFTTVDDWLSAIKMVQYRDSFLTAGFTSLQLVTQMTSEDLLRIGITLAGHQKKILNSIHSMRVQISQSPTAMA
PIK3CA(C420R), sequence (P42336 whole entry C420R): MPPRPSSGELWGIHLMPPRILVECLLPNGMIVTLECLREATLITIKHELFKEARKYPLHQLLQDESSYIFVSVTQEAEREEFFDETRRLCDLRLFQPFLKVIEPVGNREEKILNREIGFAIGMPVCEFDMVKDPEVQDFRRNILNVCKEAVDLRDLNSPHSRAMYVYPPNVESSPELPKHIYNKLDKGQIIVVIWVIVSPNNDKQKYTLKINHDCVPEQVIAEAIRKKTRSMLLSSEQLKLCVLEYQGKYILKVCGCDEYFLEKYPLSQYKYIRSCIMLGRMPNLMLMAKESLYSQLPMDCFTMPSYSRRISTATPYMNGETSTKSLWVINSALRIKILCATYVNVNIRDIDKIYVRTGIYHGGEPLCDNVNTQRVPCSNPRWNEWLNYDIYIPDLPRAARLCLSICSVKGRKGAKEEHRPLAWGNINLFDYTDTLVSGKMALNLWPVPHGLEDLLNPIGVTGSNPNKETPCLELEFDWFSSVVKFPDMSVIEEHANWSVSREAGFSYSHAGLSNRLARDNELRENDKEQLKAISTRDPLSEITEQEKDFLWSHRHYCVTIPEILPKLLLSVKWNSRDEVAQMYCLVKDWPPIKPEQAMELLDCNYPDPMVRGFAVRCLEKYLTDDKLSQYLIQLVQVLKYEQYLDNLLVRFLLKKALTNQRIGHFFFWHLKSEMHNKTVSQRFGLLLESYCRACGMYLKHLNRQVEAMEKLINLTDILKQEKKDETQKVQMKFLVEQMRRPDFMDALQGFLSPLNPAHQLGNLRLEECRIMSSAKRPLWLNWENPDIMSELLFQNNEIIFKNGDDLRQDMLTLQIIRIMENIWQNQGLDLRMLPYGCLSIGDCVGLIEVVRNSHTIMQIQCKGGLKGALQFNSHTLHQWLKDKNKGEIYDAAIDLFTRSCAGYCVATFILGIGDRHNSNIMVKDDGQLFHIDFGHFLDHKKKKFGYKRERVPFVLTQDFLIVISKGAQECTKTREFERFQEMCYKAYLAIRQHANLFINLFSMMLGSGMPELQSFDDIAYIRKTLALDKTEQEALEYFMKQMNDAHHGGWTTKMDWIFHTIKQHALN
EGFR(L747-S752del, P753S), sequence (P00533 with tags, fused parts or gaps DEL747-752/P753S): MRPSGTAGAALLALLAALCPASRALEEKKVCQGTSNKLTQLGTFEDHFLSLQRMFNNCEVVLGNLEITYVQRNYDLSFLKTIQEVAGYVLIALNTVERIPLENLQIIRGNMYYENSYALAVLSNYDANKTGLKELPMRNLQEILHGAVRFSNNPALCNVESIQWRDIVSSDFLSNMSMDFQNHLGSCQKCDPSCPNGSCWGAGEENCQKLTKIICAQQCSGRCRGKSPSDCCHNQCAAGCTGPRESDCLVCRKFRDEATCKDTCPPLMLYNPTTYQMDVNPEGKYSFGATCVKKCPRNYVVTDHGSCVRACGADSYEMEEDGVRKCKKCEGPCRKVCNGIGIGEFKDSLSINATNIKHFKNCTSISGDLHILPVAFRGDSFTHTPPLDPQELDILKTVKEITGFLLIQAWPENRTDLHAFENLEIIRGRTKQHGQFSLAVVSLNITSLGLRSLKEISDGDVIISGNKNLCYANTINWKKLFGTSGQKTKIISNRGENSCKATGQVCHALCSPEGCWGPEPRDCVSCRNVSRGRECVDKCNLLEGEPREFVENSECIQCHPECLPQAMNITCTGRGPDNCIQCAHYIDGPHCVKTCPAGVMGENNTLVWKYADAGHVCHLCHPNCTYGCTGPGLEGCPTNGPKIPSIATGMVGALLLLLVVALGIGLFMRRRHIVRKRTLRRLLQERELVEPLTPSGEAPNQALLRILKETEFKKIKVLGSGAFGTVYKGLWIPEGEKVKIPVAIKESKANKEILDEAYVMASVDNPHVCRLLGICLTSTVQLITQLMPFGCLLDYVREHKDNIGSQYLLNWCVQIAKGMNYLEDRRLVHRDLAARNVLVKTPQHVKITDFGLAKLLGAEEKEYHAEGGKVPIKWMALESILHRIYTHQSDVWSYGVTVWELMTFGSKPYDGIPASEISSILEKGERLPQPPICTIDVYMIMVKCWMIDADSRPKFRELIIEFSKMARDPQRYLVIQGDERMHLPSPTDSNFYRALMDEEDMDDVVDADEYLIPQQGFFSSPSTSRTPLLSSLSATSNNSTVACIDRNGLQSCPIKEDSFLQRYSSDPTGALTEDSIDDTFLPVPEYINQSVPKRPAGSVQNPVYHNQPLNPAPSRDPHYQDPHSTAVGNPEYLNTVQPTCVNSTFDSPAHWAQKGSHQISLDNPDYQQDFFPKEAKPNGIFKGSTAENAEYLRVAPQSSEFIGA
PLK3, sequence (Q9H4B4 whole entry): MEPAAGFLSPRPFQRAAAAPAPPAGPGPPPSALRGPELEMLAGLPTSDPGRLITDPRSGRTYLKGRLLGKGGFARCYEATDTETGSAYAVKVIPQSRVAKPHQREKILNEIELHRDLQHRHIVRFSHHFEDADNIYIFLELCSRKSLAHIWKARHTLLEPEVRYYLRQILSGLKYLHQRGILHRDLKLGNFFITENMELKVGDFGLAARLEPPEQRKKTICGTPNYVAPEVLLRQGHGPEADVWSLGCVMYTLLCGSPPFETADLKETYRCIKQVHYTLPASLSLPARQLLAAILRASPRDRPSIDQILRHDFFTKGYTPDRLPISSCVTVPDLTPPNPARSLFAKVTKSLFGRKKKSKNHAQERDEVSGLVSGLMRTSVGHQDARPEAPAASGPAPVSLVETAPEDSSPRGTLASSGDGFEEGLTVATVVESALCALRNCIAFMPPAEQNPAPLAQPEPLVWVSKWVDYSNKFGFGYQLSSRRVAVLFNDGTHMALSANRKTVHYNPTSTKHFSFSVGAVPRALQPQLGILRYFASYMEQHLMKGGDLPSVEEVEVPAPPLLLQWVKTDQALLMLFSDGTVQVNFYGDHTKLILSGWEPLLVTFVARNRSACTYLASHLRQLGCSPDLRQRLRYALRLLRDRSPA

`C=CC(=O)Nc1cc(-n2c(=O)ccc3cnc4ccc(-n5cccn5)cc4c32)ccc1C` [CHMFL-BTK-11] gave a remaining binding at 1 µM [1] of 97%, a remaining binding at 1 µM [2] of 100% and a remaining binding at 1 µM [3] of 100%. The remaining binding at 1 µM [4] was 96%, the remaining binding at 1 µM [5] was 100% and the remaining binding at 1 µM [6] was 65%. The remaining binding at 1 µM [7] was 86%, the remaining binding at 1 µM [8] was 100% and the remaining binding at 1 µM [9] was 96%. For the same compound, the remaining binding at 1 µM [10] was 100%, the remaining binding at 1 µM [11] was 100% and the remaining binding at 1 µM [12] was 90%. It also gave a remaining binding at 1 µM [13] of 100%, a remaining binding at 1 µM [14] of 78% and a remaining binding at 1 µM [15] of 97%. It also gave a remaining binding at 1 µM [16] of 82%, a remaining binding at 1 µM [17] of 92% and a remaining binding at 1 µM [18] of 100%. For the same compound, the remaining binding at 1 µM [19] was 99%, the remaining binding at 1 µM [20] was 100% and the remaining binding at 1 µM [21] was 74%. The remaining binding at 1 µM [22] was 100%, the remaining binding at 1 µM [23] was 100% and the remaining binding at 1 µM [24] was 100%.
